This is an account of results in PubChem BioAssay (NCI).

SMILES strings stand for the structures.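 A five-concentration, 48-hour dose response in 96-well plates underlies each endpoint, interpolated linearly between surrounding concentrations. GI50: concentration for 50% inhibition of growth. TGI is the concentration that stops growth completely.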

The first experiment deals with MCF7 breast. The experiment in a line: NCI tumour cell line growth inhibition, 48 h.
Turning to `CC(C)c1ccc2nc3ccc(C(=O)NCCN(C)C)cn3c(=O)c2c1`, the TGI is 30.8 µM.
As for `C#C[C@]1(O)CC[C@H]2[C@@H]3CC=C4c5nc(Nc6ccccn6)sc5CC[C@]4(C)[C@H]3CC[C@@]21C`, the GI50 was 0.968 µM and the TGI is 3.73 µM.
`O=c1oc2ccccc2c(O)c1C=NC(=S)c1ccncc1`: the TGI is over 100 µM.
For the compound `CC(O)CNC1=CC(=O)C(=O)c2ccccc21` (stereo unspecified), the TGI amounted to 48.7 µM.
Still for that read-out and setting: then `CC1=C(C(=O)NC2CCCCC2)CC(C(=O)NC2CCCCC2)=C(C)N1`, with over 100 µM.
Still for that read-out and setting: as for `Cc1cc2c(C(C)C)c(O)c(O)c(C=Nc3cc(C(F)(F)F)ccc3Cl)c2c(O)c1-c1c(C)cc2c(C(C)C)c(O)c(O)c(C=Nc3cc(C(F)(F)F)ccc3Cl)c2c1O`, the figure is 71.4 µM.
Same read-out and setting: then `CC(CO)[C@H]1OC(=O)C=C2[C@@]13O[C@@H]3[C@H]1OC(=O)[C@@]3(C)[C@H]4O[C@H]4C[C@@]2(C)[C@@H]13` (stereo partly specified), with 8.05 µM.
With `COc1cc(/C=C2\CN(C)CC3=C2Nc2nc(SC)[nH]c(=O)c2C3c2cc(OC)c(OC)c(OC)c2)cc(OC)c1OC` (stereo unspecified), the GI50 was 4.98 µM and the TGI is 18.3 µM.
The like results for `COc1cc(Nc2ccnc(N3CCN(c4ccnc5cc(Cl)ccc45)CC3)n2)cc(OC)c1` were, in that order, 0.198 µM and over 25.6 µM.
`O=C(CC(C(=O)c1cccs1)c1ccc2c(c1)OCO2)c1ccc(Br)cc1` (stereo unspecified) had a TGI of over 100 µM.
Take `C[C@]12CC[C@@H]3c4ccc(O)c([N+](=O)[O-])c4CC[C@H]3[C@@H]1CC[C@@H]2NS(=O)(=O)c1ccc(C(F)(F)F)cc1`: the GI50 was 1.91 µM and the TGI stood at 4.23 µM.
The like results for `COC(=O)C1=C(OC(=O)c2ccc(Cl)cc2)C(C(=O)OC)[C@@]2(O)[C@@H](C(=O)OC)C(c3ccccc3C(F)(F)F)C[C@@H]1[C@@H]2C(=O)OC` (stereo partly specified) were, in that order, 10.7 µM and 87.5 µM.
Turning to `N#Cc1ccc(-c2nc(C#N)c(N)o2)cc1`, the TGI was over 10 µM.

A further experiment concerns MOLT-4 leukemia. Put plainly: NCI tumour cell line growth inhibition, 48 h.
Take `COc1cc(-c2csc(NC(=O)c3cc(C(F)(F)F)cc(C(F)(F)F)c3)n2)cc(OC)c1OC`: the GI50 was 1.92 µM and the TGI turned out to be 4.98 µM.
In turn, `CC(C)=CCC12Cc3ccc(O)cc3C(C(C)CN1)C2C` (stereo unspecified) had a TGI of over 100 µM.
On the same count and under the same terms, then `CC[N+]1(C)CCC(O)(c2ccc(C)cc2)C(C(=O)c2ccc(C)cc2)C1` (stereo unspecified), with 48.1 µM.
`CC(=O)c1cccc(N(/C=C/C(=O)C(F)(F)F)CC(=O)c2ccc(Cl)cc2)c1`: the GI50 is over 100 µM and the TGI was over 100 µM.
Consider `COc1ccc(Cl)cc1Nc1nc(C(F)(F)F)ccc1C(=O)NN`, for which the GI50 was 2.53 µM and the TGI was over 24.3 µM.
`CC(C)c1ccc2nc3ccc(C(=O)NCCN(C)C)cn3c(=O)c2c1`: the TGI came to 49.8 µM.
Consider `C#C[C@]1(O)CC[C@H]2[C@@H]3CC=C4c5nc(Nc6ccccn6)sc5CC[C@]4(C)[C@H]3CC[C@@]21C`, for which the GI50 is 0.344 µM and the TGI was 1.7 µM.
In turn, `O=c1oc2ccccc2c(O)c1C=NC(=S)c1ccncc1` yielded a TGI of over 100 µM.
Regarding `CC(O)CNC1=CC(=O)C(=O)c2ccccc21` (stereo unspecified), the TGI was determined as 59.9 µM.
Same read-out and setting: then `CC1=C(C(=O)NC2CCCCC2)CC(C(=O)NC2CCCCC2)=C(C)N1`, with over 100 µM; and `O=c1nc(-c2ccccc2)c2c3c(cccn13)CCC2`, with over 100 µM; and `CC(CO)[C@H]1OC(=O)C=C2[C@@]13O[C@@H]3[C@H]1OC(=O)[C@@]3(C)[C@H]4O[C@H]4C[C@@]2(C)[C@@H]13` (stereo partly specified), with 3.65 µM.
`O=C(c1ccccc1)c1c(CC(O)c2cccnc2)n(C(=O)c2ccccc2)c2ccccc12` (stereo unspecified) returned a TGI of 47.7 µM.
Still for that read-out and setting: as for `C=C(C)C1CC2C(C)=C(OC(C)=O)C1n1c(=O)c3cc4ccccc4cc3c(=O)n12` (stereo unspecified), the figure is over 100 µM.
Turning to `COc1cc(/C=C2\CN(C)CC3=C2Nc2nc(SC)[nH]c(=O)c2C3c2cc(OC)c(OC)c(OC)c2)cc(OC)c1OC` (stereo unspecified), the GI50 is 2.92 µM and the TGI was 88 µM.
Regarding `O=C(CC(C(=O)c1cccs1)c1ccc2c(c1)OCO2)c1ccc(Br)cc1` (stereo unspecified), the TGI was over 100 µM.
For `C[C@]12CC[C@@H]3c4ccc(O)c([N+](=O)[O-])c4CC[C@H]3[C@@H]1CC[C@@H]2NS(=O)(=O)c1ccc(C(F)(F)F)cc1`, the GI50 was 2.08 µM and the TGI came out at 5.99 µM.
The like results for `COC(=O)C1=C(OC(=O)c2ccc(Cl)cc2)C(C(=O)OC)[C@@]2(O)[C@@H](C(=O)OC)C(c3ccccc3C(F)(F)F)C[C@@H]1[C@@H]2C(=O)OC` (stereo partly specified) were, in that order, 2.7 µM and 7.86 µM.
In turn, `Cc1c(C)c2cc3c(=O)ccoc3c(C)c2oc1=O` showed a TGI of 92.7 µM.
On the same count and under the same terms, then `N#Cc1ccc(-c2nc(C#N)c(N)o2)cc1`, with over 10 µM.

For another experiment, the system named is NCI/ADR-RES ovarian. Put plainly: NCI tumour cell line growth inhibition, 48 h.
`CC(C)=CCC12Cc3ccc(O)cc3C(C(C)CN1)C2C` (stereo unspecified): the TGI is over 100 µM.
`CC[N+]1(C)CCC(O)(c2ccc(C)cc2)C(C(=O)c2ccc(C)cc2)C1` (stereo unspecified): the TGI is over 100 µM.
In the case of `CC(=O)c1cccc(N(/C=C/C(=O)C(F)(F)F)CC(=O)c2ccc(Cl)cc2)c1`, the GI50 was over 100 µM and the TGI is over 100 µM.
For `COc1ccc(Cl)cc1Nc1nc(C(F)(F)F)ccc1C(=O)NN`, the GI50 is 2.3 µM and the TGI was over 22.5 µM.
Turning to `CC(C)c1ccc2nc3ccc(C(=O)NCCN(C)C)cn3c(=O)c2c1`, the TGI is 62.9 µM.
With `C#C[C@]1(O)CC[C@H]2[C@@H]3CC=C4c5nc(Nc6ccccn6)sc5CC[C@]4(C)[C@H]3CC[C@@]21C`, the GI50 was 1.72 µM and the TGI was determined as 6.1 µM.
Compound `O=c1oc2ccccc2c(O)c1C=NC(=S)c1ccncc1` yielded a TGI of over 100 µM.
On the same count and under the same terms, then `Cc1cc2c(C(C)C)c(O)c(O)c(C=Nc3cc(C(F)(F)F)ccc3Cl)c2c(O)c1-c1c(C)cc2c(C(C)C)c(O)c(O)c(C=Nc3cc(C(F)(F)F)ccc3Cl)c2c1O`, with over 100 µM.
Turning to `COc1cc(/C=C2\CN(C)CC3=C2Nc2nc(SC)[nH]c(=O)c2C3c2cc(OC)c(OC)c(OC)c2)cc(OC)c1OC` (stereo unspecified), the GI50 was 3.6 µM and the TGI is over 100 µM.
The like results for `COc1cc(Nc2ccnc(N3CCN(c4ccnc5cc(Cl)ccc45)CC3)n2)cc(OC)c1` were, in that order, 1.1 µM and 5.47 µM.
Regarding `O=C(CC(C(=O)c1cccs1)c1ccc2c(c1)OCO2)c1ccc(Br)cc1` (stereo unspecified), the TGI is over 100 µM.
For `C[C@]12CC[C@@H]3c4ccc(O)c([N+](=O)[O-])c4CC[C@H]3[C@@H]1CC[C@@H]2NS(=O)(=O)c1ccc(C(F)(F)F)cc1`, the GI50 was 1.95 µM and the TGI was determined as 4.7 µM.
In the same order, the values of `COC(=O)C1=C(OC(=O)c2ccc(Cl)cc2)C(C(=O)OC)[C@@]2(O)[C@@H](C(=O)OC)C(c3ccccc3C(F)(F)F)C[C@@H]1[C@@H]2C(=O)OC` (stereo partly specified) are 3.11 µM and over 100 µM.
`N#Cc1ccc(-c2nc(C#N)c(N)o2)cc1` gave a TGI of over 10 µM.
